Test results from patent US11613750B2, “Methods of reducing virus molecule levels” (priority 2019, dated 2023).
pEC50: −log10 of the molar value.

Assays:
HepG2.2.15 cells = test: HepG2.2.15 cell viability, CellTiter-Glo; settings: for CC50: read-out: CC50, HepG2.2.15 cell viability, highest concentration tested 80 nM
Description: (§1) Cell viability was assessed by ATP levels determined using the CellTiter-Glo reagent and the results normalized to the level in mock-treated cells. HBsAg levels were quantified using ELISA and the data normalized to the level in the mock-treated cells.
The effects on cell viability were quantified using the CellTiter-Glo reagent. All data were normalized to the amount of protein produced by mock-treated cells.
(§2) The library of siRNAs of Example A5 were tested for the reduction of HBsAg secreted by HepG2.2.15 cells and in HBV virions.

HBsAg = settings: HepG2.2.15 cells; for pEC50: read-out: EC50, Extracell. HBsAg reduction
Description: as §1
The cellular proteins GRP78/BIP, SRSF1, HNRNPA2B1, RPLP1, and RPLP2 were identified as having roles in HBV replication and infection. Various siRNAs and combinations thereof targeting the RNAs encoding these proteins were contacted with HepG2.2.15 cells at a final concentration of 7.5 nM.
The EC50 values of several siRNAs and combinations of siRNAs targeting HNRNPA2B1, GRP78, RPLP1, RPLP2, and/or SRSF1 were determined with respect to the ability to reduce HBsAg levels in HepG2.2.15 cells.
(§3) The ability of siRNAs targeting host factors that then results in the reduced production of multiple HBV molecules was evaluated by quantifying the amount of HBsAg, HBeAg, and Core protein produced by HepG2.2.15 cells after contacting with 10 nM of siRNAs that target HNRNPA2B1, GRP78, RPLP1, RPLP2, and SRSF1. We also contacted the cells with 5 nM of each set of siRNAs that targets both RPLP1 and RPLP2. The level of HBsAg, HBeAg, and Core were all determined using ELISAs.
as §2

RPLP2 protein = test: Target protein reduction by Western blot in HepG2.2.15 cells; assay type: cell-based, human; settings: 10 nM siRNA, 72 h
Description: The host factors likely function in viral infection as proteins. Therefore, we determined whether the siRNAs could decrease the amounts of the target protein. Cell transfected with 10 nM of each siRNA for 72 h were lysed and the target proteins identified using Western blots probed with target-specific antibodies. The effective siRNAs described in Table 3 reduced the levels of the proteins by between 28 and 92% of the mock-treated samples. The reduction in the proteins is less than the reduction of the target mRNA, likely due to the proteins have prolonged half-life and that more time is needed for their degradation. […] We reason that this is due to RPLP1 and RPLP2 functioning as heterodimers such that a decrease of one protein increases the vulnerability of the other protein to degradation. Similar concomitant decrease of the proteins was reported by Campos et al. (17). Finally, the levels of two cellular proteins that are not targeted by the siRNAs, P54nrb and GAPDH, were unaffected.

HBeAg = settings: for HBeAg reduction HepG2.2.15 cells: 10 nM siRNA transfected into cells
Description: HBeAg in the cell culture media was assessed using ELISAs.
as §3, §2

HCoV-OC43 = test: OC43 virion RNA, Branched DNA assay, infected HCT8 cells; assay type: cell-based, human coronavirus OC43; settings: for OC43 vRNA reduction siRNA and siGRP78: 10 nM siRNA along with 10 nM of siRNA targeting GRP78, HCT8 cells; for OC43 vRNA reduction: 10 nM siRNA, HCT8 cells
Description: The siRNAs were transfected in the HCT8 cells at a final concentration of 10 nM. A positive control for the inhibition of Coronavirus infection, Remdesivir (Rem), was used at 0.9 μM. The virion RNAs (vRNAs) were quantified using a Branched DNA assay specific for OC43 RNA.
The two siRNAs are those referred to by compound number (see Table 2) in the horizontal bar, along with siRNA targeting GRP78, siGRP78. A positive control for the inhibition of Coronavirus infection, Remdesivir (Rem), was used at 0.9 μM. The vRNAs were quantified using a Branched DNA assay specific for OC43 RNA.
The siRNAs listed in Table 2 were transfected into human colon epithelial HCT8 cells and the amount of OC43 virion produced was quantified. In these assays, the OC43 vRNA was quantified using a Branched DNA assay (QuantiGene gene expression assay: ThermoFisher). As a positive inhibitory control, the infected cells were treated with Remdesivir. […] Examples of the inhibition of OC43 vRNA are illustrated in FIG. 5A.
A combination of siRNAs targeting the host factor should more robustly reduce OC43 virion production. To illustrate this, HCT8 cells were transfected with 10 nM of siRNAs from Table 2 along with 10 nM of siRNA targeting GRP78. The virion RNAs produced were quantified using the Branched DNA assay. […] A combination of siRNAs targeting host factors GRP78, SRSF1, RPLP1 and RPLP2 can lead to significant reduction in the production of human Coronavirus virion RNA from infected cells.

RPLP2 mRNA = test: Target mRNA reduction by RT-qPCR in HepG2.2.15 cells; assay type: cell-based, human; settings: 10 nM siRNA
From the text: The siRNAs identified as described in Example A6 should function by a mechanism that includes being loaded in the RISC complex to cleave the cognate mRNA, leading to the degradation of the mRNA. To examine whether the siRNAs are effective in reducing the target mRNA, we used reverse transcription coupled with quantitative polymerase chain reaction (RT-qPCR) to assess the level of the target mRNA in HepG2.2.15 cells. All 32 siRNAs described in Table 2 reduced the mRNA by more than 75% (Table 3).

Row | Substance | CC50 (HepG2.2.15 cells) [pM] | cytotoxicity / cell viability, siRNA library (HepG2.2.15 cells; up to the highest concentration tested, 80 nM) | HBsAg level, dose response (HBsAg; FIG. 5A) | pEC50 (HBsAg) | Target protein reduction in HepG2.2.15 cells (RPLP2 protein) [%] | HBeAg reduction HepG2.2.15 cells (HBeAg) [%] | HBeAg level, siRNA library (HBeAg; HepG2.2.15 cells, Example A6, FIG. 5A) | OC43 vRNA reduction siRNA and siGRP78 (HCoV-OC43) [%] | OC43 vRNA reduction (HCoV-OC43) [%] | Target RNA reduction in HepG2.2.15 cells (RPLP2 mRNA) [%]
1 | 34 (GCUGAAUGGAAAAAACAUUGATTAAUGUUUUUUCCAUUCAGCUCTT; siRNA; Self-complementary hairpin strand, chemistry not given here, further chemistry not given here; listed as Homo sapiens) [compound 34] | > 80000 | without affecting cell viability | dose-dependent reduction of HBV S-antigen (HBsAg) | 9.82 | 62.5 ± 3 | 74 ± 4 | inhibited the levels of HBsAg and HBeAg | 86 ± 5 | 86 ± 3 | 93 ± 1
2 | 35 (GGGAUUUGGCCUUUUUGAUUATTAUCAAAAAGGCCAAAUCCCAUTT; siRNA; Self-complementary hairpin strand, chemistry not given here, further chemistry not given here; listed as Homo sapiens) [compound 35] | > 80000 | – | – | 11.00 | 78 ± 16 | 69 ± 3 | – | 96 ± 1 | 94 ± 6 | 98 ± 0
3 | 36 (CCUUUUUGAUUAAAUUCCUGCTTAGGAAUUUAAUCAAAAAGGCCTT; siRNA; Self-complementary hairpin strand, chemistry not given here, further chemistry not given here; listed as Homo sapiens) [compound 36] | > 80000 | – | – | 8.04 | 57 ± 3 | 26 ± 5 | – | 87 ± 6 | – | 94 ± 1
4 | 37 (CUGAAUGGAAAAAACAUUGAAUUUUCAAUGUUUUUUCCAUUCAGUU; siRNA; Self-complementary hairpin strand, chemistry not given here, further chemistry not given here; listed as Homo sapiens) [compound 37] | > 80000 | – | – | 10.31 | 71 ± 10 | 53 ± 3 | – | 88 ± 5 | 94 ± 2 | 98 ± 1
5 | 38 (AGUGUACCUGCUGGUGGGGCUUUAGCCCCACCAGCAGGUACACUUU; siRNA; Self-complementary hairpin strand, chemistry not given here, further chemistry not given here; listed as Homo sapiens) [compound 38] | > 80000 | – | – | 10.12 | 55 ± 2 | – | – | 61 ± 14 | 39 ± 6 | 96 ± 1
6 | 39 (AGAGGAGAAGAAAGAUGAGAAUUUUCUCAUCUUUCUUCUCCUCUUU; siRNA; Self-complementary hairpin strand, chemistry not given here, further chemistry not given here; listed as Homo sapiens) [compound 39] | > 80000 | – | – | 9.99 | 48 ± 9 | 59 ± 4 | – | 86 ± 6 | 91 ± 2 | 96 ± 1
7 | 40 (AGUCUGAAGAGUCAGAUGAUGUUCAUCAUCUGACUCUUCAGACUUU; siRNA; Self-complementary hairpin strand, chemistry not given here, further chemistry not given here; listed as Homo sapiens) [compound 40] | > 80000 | – | – | 9.94 | 54 ± 2 | 56 ± 3 | – | 79 ± 15 | 89 ± 5 | 98 ± 1
8 | 41 (AUGGGAUUUGGCCUUUUUGAUUUAUCAAAAAGGCCAAAUCCCAUUU; siRNA; Self-complementary hairpin strand, chemistry not given here, further chemistry not given here; listed as Homo sapiens) [compound 41] | > 80000 | – | – | 9.68 | 58 ± 2 | 40 ± 4 | – | 81 ± 7 | 89 ± 5 | 97 ± 1
9 | 42 (CCCAGCGCCAAGGACAUCAAGUUCUUGAUGUCCUUGGCGCUGGGUU; siRNA; Self-complementary hairpin strand, chemistry not given here, further chemistry not given here; listed as Homo sapiens) [compound 42] | > 80000 | – | – | 9.41 | 50 ± 4 | 42 ± 2 | – | 85 ± 7 | 57 ± 5 | 95 ± 1
